Data: patent US20260207565A1, “COMPOUNDS THAT INHIBIT PKMYT1” (Exelixis, Inc., priority 2022, published 2026)
pIC50: −log10 of the molar value. Read-outs that look alike come from different tables or passages of the source.

How the values were obtained:
PKMYT1 = target: T1, PKMYT1 (Homo sapiens, UniProt Q99640); test: ADP-Glo PKMYT1 ATP-depletion assay; conditions: 50 nM PKMYT1, 13.3 nM CDK1, 88 μM ATP, 120 minutes at RT, read-out: Biochemical IC50
T1 construct: PKMYT1 (93 kD, full length, N-terminal GST tag from Signal Chem); GST (N); purchased Signal Chem
T1 sequence (Q99640 1-499): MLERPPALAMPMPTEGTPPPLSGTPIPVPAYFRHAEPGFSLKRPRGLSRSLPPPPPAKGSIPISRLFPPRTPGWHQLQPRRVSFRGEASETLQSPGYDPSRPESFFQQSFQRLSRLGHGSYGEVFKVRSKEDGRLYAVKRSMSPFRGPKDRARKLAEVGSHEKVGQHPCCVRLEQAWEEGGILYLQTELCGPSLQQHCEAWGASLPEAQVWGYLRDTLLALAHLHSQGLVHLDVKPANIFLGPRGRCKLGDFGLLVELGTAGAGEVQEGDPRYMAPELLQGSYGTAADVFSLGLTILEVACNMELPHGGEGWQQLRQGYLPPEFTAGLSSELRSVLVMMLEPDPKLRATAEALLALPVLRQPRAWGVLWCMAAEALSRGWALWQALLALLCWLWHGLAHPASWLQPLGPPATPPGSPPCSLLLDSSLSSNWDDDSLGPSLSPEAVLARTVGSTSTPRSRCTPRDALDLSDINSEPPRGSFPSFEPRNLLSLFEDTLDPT
In short: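 Full-length N-GST PKMYT1 (50 nM) incubated 120 min at RT with full-length GST-CDK1 (13.3 nM) and 88 μM ATP in Hepes buffer containing Mg2+, Mn2+, DTT and BSA; DMSO <10%. ADP formed was converted via ADP-Glo to luminescence; IC50 derived.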

[1] = system: phosphorylation of CDK1 at Thr14 in HCC1806 cells; test: Cell lysate AlphaLISA assay measuring inhibition of phosphorylation of CDK1 Thr14; assay type: cell-based; conditions: compounds incubated 4 hours, AlphaLISA SureFire Ultra CDK1 Thr14, read-out: Cellular IC50
In short: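 HCC1806 cells treated with compound for 4 h at 37 °C, lysed, and phospho-CDK1 Thr14 quantified by AlphaLISA SureFire Ultra. Data normalized to DMSO (0% inhibition) and 3 μM reference compound; IC50 derived.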

Row | pIC50 (PKMYT1) | pIC50 [1] | pIC50 ([1]; Homo sapiens, HCC1806, 4 h) | Compound
1 | 5.30 to 6.00 | ≤ 5.30 |  | Cc1ccc(O)c(C)c1-c1c(N)c(C(N)=O)nc2c1ncn2C (single isomer, unassigned) [Compound 3, (M)-6-amino-7-(3-hydroxy-2,6-dimethylphenyl)-3-methyl-3H-imidazo[4,5-b]pyridine-5-carboxamide]
2 | > 7.30 |  | 6.00 to 6.30 | Cc1ccc(O)c(C)c1-c1c(N)c(C(N)=O)cc2c1nc(C)n2C [Compound 15, 5-amino-4-(3-hydroxy-2,6-dimethylphenyl)-1,2-dimethyl-1H-benzo[d]imidazole-6-carboxamide]
3 | 6.30 to 7.30 |  | 6.00 to 6.30 | COC(=O)c1cnc2c(-c3cccc(O)c3C)c(N)c(C(N)=O)cn12 [Compound 50, Methyl 7-amino-6-carbamoyl-8-(3-hydroxy-2-methylphenyl)imidazo[1,2-a]pyridine-3-carboxylate]
4 | > 7.30 |  | > 7.30 | Cc1ccc(O)c(C)c1-c1cc(C(N)=O)nc2c1c(C#N)cn2-c1ncccc1F (atropisomer, axis not shown; (P)) [Compound 68, (P)-3-Cyano-1-(3-fluoropyridin-2-yl)-4-(3-hydroxy-2,6-dimethylphenyl)-1H-pyrrolo[2,3-b]pyridine-6-carboxamide]
5 | ≤ 5.30 |  | ≤ 5.30 | Cc1ccc(O)c(C)c1-c1cc(C(=O)N(C)C)nc2cn[nH]c12 [Compound 20]
6 | > 7.30 |  | > 7.30 | Cc1c(O)cccc1-c1c(N)c(C(N)=O)nc2c1c(-c1c[nH]nn1)cn2C (atropisomer, axis not shown; (M)) [Compound 90, (M)-5-amino-4-(3-hydroxy-2-methylphenyl)-1-methyl-3-(1H-1,2,3-triazol-4-yl)-1H-pyrrolo[2,3-b]pyridine-6-carboxamide]
7 | 6.30 to 7.30 |  | ≤ 5.30 | Cc1nc2c(-c3cccc(O)c3C)c(N)c(C(N)=O)cn2c1C [Compound 48, 7-Amino-8-(3-hydroxy-2-methylphenyl)-2,3-dimethylimidazo[1,2-a]pyridine-6-carboxamide]
8 | 6.30 to 7.30 |  | 5.30 to 6.00 | Cc1ccc(O)c(C)c1-c1cc(C(N)=O)nc2c1c(Br)cn2C [Compound 24]
9 | > 7.30 |  | 6.30 to 7.30 | Cc1ccc(O)c(C)c1-c1cc(C(N)=O)nc2c1c(C#N)cn2C [Compound 22, 3-cyano-4-(3-hydroxy-2,6-dimethylphenyl)-1-methyl-pyrrolo[2,3-b]pyridine-6-carboxamide]
10 | > 7.30 |  | > 7.30 | Cc1ccc(O)c(C)c1-c1c(N)c(C(N)=O)nc2c1c(C#N)cn2C [Compound 13]
11 | > 7.30 |  | > 7.30 | Cc1ccc(O)c(C)c1-c1cc(C(N)=O)nc2c1c(C#N)cn2C(C)C (atropisomer, axis not shown; (P)) [Compound 88, (P)-3-cyano-4-(3-hydroxy-2,6-dimethylphenyl)-1-isopropyl-1H-pyrrolo[2,3-b]pyridine-6-carboxamide]
12 | ≤ 5.30 |  | ≤ 5.30 | CNC(=O)c1cc(-c2c(C)ccc(O)c2C)c2[nH]ncc2n1 [Compound 19, 7-(3-hydroxy-2,6-dimethylphenyl)-N-methyl-1H-pyrazolo[4,3-b]pyridine-5-carboxamide]
13 | > 7.30 |  | > 7.30 | CCn1cc(-c2cn[nH]c2)c2c(-c3cccc(O)c3C)c(N)c(C(N)=O)nc21 (atropisomer, axis not shown; (M)) [Compound 91, (M)-5-amino-1-ethyl-4-(3-hydroxy-2-methylphenyl)-3-(1H-pyrazol-4-yl)-1H-pyrrolo[2,3-b]pyridine-6-carboxamide]
